Laboratory results as given in PubChem BioAssay AID1963427 (Molecular Pharmacology Branch, DTP, NCI, 2024).
Each block holds one compound with its values, some of them ahead of it.

System: 317291-083-R-J1-PDC complex spheroid growth
Assay: Anticancer human tumor 317291-083-R-J1-PDC patient-derived soft tissue sarcoma cell line growth inhibition [Asc]
Conditions: for IC50: curve of first compound; for viability, T/C: stronger effect = lower value
Method: Multicellular complex tumor spheroid response to apoptosis pathway targeting inhibitors Alrizomadlin, Pelcitoclax, and Dasminapant in combination with a variety of drugs and investigational agents in selected tumor cell lines
The MDM2 inhibitor alrizomadlin, the Bcl-2/Bcl-xL inhibitor pelcitoclax, and the IAPs inhibitor dasminapant were evaluated both individually and in combination with standard of care and investigational anticancer small molecules within a complex spheroid model of solid tumors. . Complex spheroids include a stromal component modeled by human endothelial cells (HUVEC) and fibroblasts modeled by human mesenchymal stem cells (MSCs). The concentration ranges selected for each drug and investigational agent were based upon clinically achievable concentrations if the clinical Cmax of the agent was known.
Compounds. The drugs and investigational agents: alrizomadlin (APG-115; NSC831270), pelcitoclax (APG-1252; NSC835773), dasminapant (APG-1387;NSC834197), TAK-243 (NSC785004), copanlisib (NSC809693), olaparib (NSC753686), talazoparib (NSC767125), cobimetinib (NSC 768068), eltanexor (KPT-8602, NSC 794443), abemaciclib (NSC 768073), sotorasib (NSC818433), adagrasib (NSC 831453), MRTX-1133 (NSC 836407), Iadademestat (ORY1001, NSC 806812), and RMC-4630 (NSC839698), were obtained from the NCI Developmental Therapeutics Program Chemical Repository. The FDA-approved anticancer drug set is available from the Developmental Therapeutics Program at https://dtp.cancer.gov/organization/dscb/obtaining/available plates.htm. […] The stock solutions were prepared in dimethyl sulfoxide (DMSO, Sigma-Aldrich, St. Louis, MO, cat. D2650) at 800-fold the tested concentration and stored at -70 degrees C prior to their use. All drugs and investigational agents were tested over a range starting from a high concentration at or near the clinical Cmax and decreasing in half-log increments. If the clinical Cmax for an agent had not been determined, the highest concentration tested was 10 microM.
The patient-derived cancer (PDC) cell lines include five colon adenocarcinomas: 186277-243-T-J2-PDC, 616215-338-R-J1-PDC, 439559-082-T-J2-PDC, 463943-066-T-J2-PDC, and 519858-162-T-J1-PDC; three pancreatic carcinomas: 323965-272-R-J2-PDC, 521955-158-R6-J3-PDC, and 521955-158-R2-J5-PDC; two uterine sarcomas: 327498-152-R-J2-PDC and 993429-296-R-J1-PDC; two rhabdomyosarcomas: 755483-174-R-J1-PDC and 772245-204-R-J1-PDC; two soft tissue sarcomas: 126254-015-R-J1-PDC and 494315-158-R-J1-PDC; two malignant fibrous histiocytomas: 317291-083-R-J1-PDC and 596521-263-R-J1-PDC; two breast carcinomas: 171881-019-R-J1-PDC and 885512-296-R-J2-PDC; and one ovarian carcinoma: 6556581-035-R-J-PDC were obtained from the NCI PDMR, (https://pdmr.cancer.gov). The established cell lines HSSY-2 synovial sarcoma (RRID:CVCL 8719), SYO-1 synovial sarcoma (RRID:CVCL_7146), MPNST malignant peripheral neural sheath tumor were obtained from the Sloan Kettering Institute. The following established cell lines were purchased from the American Type Culture Collection (ATCC, Manassas, VA), Sor the received from the NCI repository:, PANC-1 pancreatic carcinoma (CRL-1469, RRID:CVCL_0480), OVCAR-5 ovarian carcinoma (RRID:CVCL_1628), OVCAR-8 ovarian carcinoma (RRID:CVCL_1629), , MCF-7 breast carcinoma (CRL-12584, RRID:CVCL_0031), MDA-MB-231 breast carcinoma (CRL-12532, RRID:CVCL_0062), NCI-H1876 small cell lung carcinoma (CRL-5902, RRID:CVCL_1503), NCI-H510A small cell lung carcinoma (HTB-184, RRID:CVCL_1565), NCI-H1417 (CRL-5869, RRID:CVCL_1469), and NCI-H196 small cell lung carcinoma (CRL-5823, RRID:CVCL_1509). Dr. Peter Houghton (Greehey Children's Cancer Research Institute, University of Texas Health Science Center, San Antonio, TX) provided Rh-18 rhabdomyosarcoma (RRID:CVCL_1659). Pooled donor human umbilical vein endothelial cells (HUVEC, Lonza, cat. CC-2519) and human mesenchymal stem cells (hMSC, Lonza, cat. PT-2501) were purchased from Lonza (Walkersville, MD).
Cell Culture. […]

[1] = second compound 0.00949 µM, first compound 0.00316 µM
[2] = second compound 0.00949 µM, first compound 0.01 µM
[3] = second compound 0.00949 µM, first compound 0.0316 µM
[4] = second compound 0.00949 µM, first compound 0.1 µM
[5] = second compound 0.00949 µM, first compound 0.316 µM
[6] = second compound 0.00949 µM, first compound 1 µM
[7] = second compound 0.03 µM, first compound 0.00316 µM
[8] = second compound 0.03 µM, first compound 0.01 µM
[9] = second compound 0.03 µM, first compound 0.0316 µM
[10] = second compound 0.03 µM, first compound 0.1 µM
[11] = second compound 0.03 µM, first compound 0.316 µM
[12] = second compound 0.03 µM, first compound 1 µM
[13] = second compound 0.0949 µM, first compound 0.00316 µM
[14] = second compound 0.0949 µM, first compound 0.01 µM
[15] = second compound 0.0949 µM, first compound 0.0316 µM
[16] = second compound 0.0949 µM, first compound 0.1 µM
[17] = second compound 0.0949 µM, first compound 0.316 µM
[18] = second compound 0.0949 µM, first compound 1 µM
[19] = second compound 0.3 µM, first compound 0.00316 µM
[20] = second compound 0.3 µM, first compound 0.01 µM
[21] = second compound 0.3 µM, first compound 0.0316 µM
[22] = second compound 0.3 µM, first compound 0.1 µM
[23] = second compound 0.3 µM, first compound 0.316 µM
[24] = second compound 0.3 µM, first compound 1 µM
[25] = second compound 0.949 µM, first compound 0.00316 µM
[26] = second compound 0.949 µM, first compound 0.01 µM
[27] = second compound 0.949 µM, first compound 0.0316 µM
[28] = second compound 0.949 µM, first compound 0.1 µM
[29] = second compound 0.949 µM, first compound 0.316 µM
[30] = second compound 0.949 µM, first compound 1 µM
[31] = second compound 3 µM, first compound 0.00316 µM
[32] = second compound 3 µM, first compound 0.01 µM
[33] = second compound 3 µM, first compound 0.0316 µM
[34] = second compound 3 µM, first compound 0.1 µM
[35] = second compound 3 µM, first compound 0.316 µM
[36] = second compound 3 µM, first compound 1 µM
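Further: compound exposure lasted seven days after spheroids formed for three days.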
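Wherever viability, T/C is given: 100% = DMSO vehicle control wells.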

IC50 (second compound 0.00949 µM): > 1000 nM
IC50 (second compound 0.03 µM): > 1000 nM
IC50 (second compound 0.0949 µM): 814 nM
IC50 (second compound 0.3 µM): > 1000 nM
IC50 (second compound 0.949 µM): 837 nM
IC50 (second compound 3 µM): > 1000 nM
Compound: CCN1CCN(Cc2ccc(Nc3ncc(F)c(-c4cc(F)c5nc(C)n(C(C)C)c5c4)n3)nc2)CC1 + CCN1C(C(=O)NC23CCC(C(=O)O)(CC2)CC3)C(c2cccc(Cl)c2F)C2(C(=O)Nc3cc(Cl)ccc32)C12CCCCC2
viability, T/C [1]: 95%
viability, T/C [2]: 95.8%
viability, T/C [3]: 100%
viability, T/C [4]: 115%
viability, T/C [5]: 91.2%
viability, T/C [6]: 55.4%
viability, T/C [7]: 99.7%
viability, T/C [8]: 101%
viability, T/C [9]: 97.9%
viability, T/C [10]: 103%
viability, T/C [11]: 80.1%
viability, T/C [12]: 53%
viability, T/C [13]: 97.7%
viability, T/C [14]: 89.3%
viability, T/C [15]: 97%
viability, T/C [16]: 112%
viability, T/C [17]: 88.4%
viability, T/C [18]: 41.6%
viability, T/C [19]: 100%
viability, T/C [20]: 93.1%
viability, T/C [21]: 80.6%
viability, T/C [22]: 86.4%
viability, T/C [23]: 68.1%
viability, T/C [24]: 79.6%
viability, T/C [25]: 106%
viability, T/C [26]: 96.7%
viability, T/C [27]: 79.1%
viability, T/C [28]: 91.1%
viability, T/C [29]: 73.1%
viability, T/C [30]: 44.5%
viability, T/C [31]: 77.5%
viability, T/C [32]: 77%
viability, T/C [33]: 78.9%
viability, T/C [34]: 72.2%
viability, T/C [35]: 56.6%
viability, T/C [36]: 60.9%

IC50 (second compound 0.00949 µM): 540 nM
IC50 (second compound 0.03 µM): 448 nM
IC50 (second compound 0.0949 µM): 549 nM
IC50 (second compound 0.3 µM): 526 nM
IC50 (second compound 0.949 µM): 528 nM
IC50 (second compound 3 µM): 389 nM
Compound: O=C(c1ccc(F)c(F)c1Nc1ccc(I)cc1F)N1CC(O)([C@@H]2CCCCN2)C1 + CCN1C(C(=O)NC23CCC(C(=O)O)(CC2)CC3)C(c2cccc(Cl)c2F)C2(C(=O)Nc3cc(Cl)ccc32)C12CCCCC2
viability, T/C [1]: 101%
viability, T/C [2]: 89%
viability, T/C [3]: 106%
viability, T/C [4]: 101%
viability, T/C [5]: 71.9%
viability, T/C [6]: 24.8%
viability, T/C [7]: 91.2%
viability, T/C [8]: 94.8%
viability, T/C [9]: 85%
viability, T/C [10]: 117%
viability, T/C [11]: 64.9%
viability, T/C [12]: 15.8%
viability, T/C [13]: 103%
viability, T/C [14]: 90.8%
viability, T/C [15]: 98.2%
viability, T/C [16]: 113%
viability, T/C [17]: 69.8%
viability, T/C [18]: 28.4%
viability, T/C [19]: 124%
viability, T/C [20]: 95.1%
viability, T/C [21]: 86.3%
viability, T/C [22]: 107%
viability, T/C [23]: 71.4%
viability, T/C [24]: 23%
viability, T/C [25]: 105%
viability, T/C [26]: 105%
viability, T/C [27]: 114%
viability, T/C [28]: 104%
viability, T/C [29]: 72.2%
viability, T/C [30]: 22.4%
viability, T/C [31]: 105%
viability, T/C [32]: 92.7%
viability, T/C [33]: 96.8%
viability, T/C [34]: 90.2%
viability, T/C [35]: 55.4%
viability, T/C [36]: 24.8%
